The text below walks through data of US8269000B2, “Substituted pyrimidine and triazine compounds” (Gruenenthal GmbH, priority 2008, dated 2012).

For the test, the target named is T1, rat B1R (Rattus norvegicus, UniProt P97583).
T1 construct: expressed in transfected cells; host or cells: CHO K1 cells
T1 sequence (P97583 1-337): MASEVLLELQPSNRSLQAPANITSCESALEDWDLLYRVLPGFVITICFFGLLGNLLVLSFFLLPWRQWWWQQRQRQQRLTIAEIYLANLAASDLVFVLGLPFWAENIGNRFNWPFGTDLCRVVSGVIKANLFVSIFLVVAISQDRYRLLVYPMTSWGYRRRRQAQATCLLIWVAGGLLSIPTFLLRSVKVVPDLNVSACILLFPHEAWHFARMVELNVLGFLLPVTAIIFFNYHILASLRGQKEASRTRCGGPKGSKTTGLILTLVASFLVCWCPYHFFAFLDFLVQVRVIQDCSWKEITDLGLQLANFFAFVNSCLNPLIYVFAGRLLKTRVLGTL
Kind of test: FLIPR Ca2+ functional study on bradykinin receptor 1 (rB1R CHO K1 cells). It is filed as cell-based. The note with it: for % inh. (rat B1R) 10 μM: % inhibition rat B1R at 10 μM; for inhibition at 10 µM: CHO-K1, % inhibition rat B1R at 10 μM, read-out: % inh. (rat B1R) 10 μM. As to the method:
The agonistic or antagonistic activity of substances can be quantified on the bradykinin receptor 1 (B1R) of the species human and rat using ectopically expressing cell lines (CHO K1 cells) and with the aid of a Ca^2+-sensitive dye (Fluo-4) using a fluorescent imaging plate reader (FLIPR). The indication in % activation is based on the Ca^2+ signal after addition of Lys-Des-Arg^9-bradykinin (0.5 nM) or Des-Arg^9-bradykinin (100 nM). Antagonists lead to suppression of the Ca^2+ influx after the addition of the agonist. % Inhibition compared with the maximum achievable inhibition is indicated.
The agonistic or antagonistic activity of substances can be determined on the bradykinin receptor 1 (B1R) of the species human and rat using the following assay. According to this assay, the Ca^2+ influx through the channel is quantified with the aid of a Ca^2+-sensitive dye (Fluo-4 type, Molecular Probes Europe BV, Leiden, Netherlands) using a Fluorescent Imaging Plate Reader (FLIPR, Molecular Devices, Sunnyvale, USA).
Chinese hamster ovary cells (CHO K1 cells) which have been stably transfected with the human B1R gene (hB1R cells) or with the B1R gene of the rat (rB1R cells) are used. For functional studies, the cells are plated out on black 96-well plates having a clear base (BD Biosciences, Heidelberg, Germany or Greiner, Frickenhausen, Germany) in a density of 20,000-35,000 cells/well. The cells are left overnight at 37° C. and with 5% CO2 in culture medium (hB1R cells: Nutrient Mixture Ham's F12, Gibco Invitrogen GmbH, Karlsruhe, Germany or DMEM, Sigma-Aldrich, Taufkirchen, Germany; rB1R cells: D-MEM/F12, Gibco Invitrogen GmbH, Karlsruhe, Germany), with 10 vol.% FBS (fetal bovine serum, Gibco Invitrogen GmbH, Karlsruhe, Germany or PAN Biotech GmbH, Aidenbach, Germany). On the following day, the cells are loaded for 60 minutes at 37° C. with 2.13 μM Fluo-4 (Molecular Probes Europe BV, Leiden, Netherlands) in HBSS buffer (Hank's buffered saline solution, Gibco Invitrogen GmbH, Karlsruhe, Germany) […] (Sigma-Aldrich, Taufkirchen, Germany) and 10 mM HEPES (Sigma-Aldrich, Taufkirchen, Germany). The plates are then washed twice with HBSS buffer, and HBSS buffer additionally containing 0.1% BSA (bovine serum albumin; Sigma-Aldrich, Taufkirchen, Germany), 5.6 mM glucose and 0.05% gelatin (Merck KGaA, Darmstadt, Germany) is added to the plates. After incubation for a further 20 minutes at room temperature, the plates are inserted into the FLIPR for Ca^2+ measurement. Alternatively, washing is carried out with buffer A (15 mM HEPES, 80 mM NaCl, 5 mM KCl, 1.2 mM CaCl2, 0.7 mM MgSO4, 2 g/l glucose, 2.5 mM probenecid) followed by loading with buffer A with added 2.5 μM Fluo-4 and 0.025% Pluronic F127 (Sigma-Aldrich, Taufkirchen, Germany). The cells are then washed twice with buffer A and incubated for 30 minutes at room temperature with buffer A additionally containing 0.05% BSA and 0.05% gelatin and are then inserted into the FLIPR for Ca^2+ measurement. The Ca^2+-dependent fluorescence is measured before and after the addition of substances (λex=488 nm, λem=540 nm). Quantification is carried out by measuring the highest fluorescence intensity (FC, fluorescence counts) over time.
The FLIPR protocol consists of two substance additions. Test substances (10 μM) are first pipetted onto the cells and the Ca^2+ influx is compared with the control (hB1R: Lys-Des-Arg^9-bradykinin>=50 nM; rB1R: Des-Arg^9-bradykinin 10 μM). This gives the activation in %, based on the Ca^2+ signal after addition of Lys-Des-Arg^9-bradykinin (>=50 nM) or Des-Arg^9-bradykinin (10 μM). After 10-20 minutes' incubation, Lys-Des-Arg^9-bradykinin (hB1R) or Des-Arg^9-bradykinin (rB1R) is applied in the concentration of the EC80, and the influx of Ca^2+ is likewise determined. Antagonists lead to suppression of the Ca^2+ influx. The % inhibition compared with the maximum achievable inhibition is calculated. […]

With `COc1cc(C)c(S(=O)(=O)N2CCCCC2COc2ccnc(N3CCN(c4ncccn4)CC3)n2)c(C)c1` (stereo not drawn) [H_CC-004, 4-[[1-(4-methoxy-2,6-dimethylphenyl)sulfonyl-2-pipendinyl]methoxy]-2-[4-(2-pyrimidinyl)-1-piperazinyl]pyrimidine], the “% inh. (rat B1R) 10 μM” value amounted to 57%.

For the compound `COc1cc(C)c(S(=O)(=O)N(C)C(COc2nccc(N3CCC(c4nc(-c5ccncc5)no4)CC3)n2)c2ccccc2)c(C)c1` (stereo not drawn) [G_CC-134], the “% inh. (rat B1R) 10 μM” value is 88%. For `COc1cc(C)c(S(=O)(=O)N2CCC[C@H]2COc2nccc(N3CCC(c4ccccc4)(N4CCCC4)CC3)n2)c(C)c1` [G_CC-115, 2-[[(2S)-1-[(4-methoxy-2,6-dimethyl-phenyl)sulfonyl]-pyrrolidin-2-yl]-methoxy]-4-(4-phenyl-4-pyrrolidin-1-yl-piperidin-1-yl)-pyrimidine], the inhibition at 10 µM was 81%. Still for that read-out and setting: the value for `CN(C(COc1ccnc(N2CCC(OCCN3CCCC3)(c3cccnc3)CC2)n1)c1ccccc1)S(=O)(=O)c1ccc2ccccc2c1` (stereo not drawn) [H_CC-038, N-methyl-N-[1-phenyl-2-[[2-[4-(3-pyridyl)-4-(2-1-pyrrolidinylethoxy)-1-piperidinyl]-4-pyrimidinyl]oxy]ethyl]-2-naphthalenesulfonamide] was 70%; that for `COc1cc(C)c(S(=O)(=O)N(C)CCOc2nccc(N3CCC4(CC3)OCc3ccccc34)n2)c(C)c1` [G_CC-029, 4-methoxy-N,2,6-trimethyl-N-[2-[[4-(1′-spiro[1H-isobenzofuran-3,4′-piperidin]yl)-2-pyrimidinyl]oxy]ethyl]benzenesulfonamide] was 52%.

With `COc1cc(C)c(S(=O)(=O)N(C)CCOc2nccc(N3CCC4(CCN(Cc5ccccc5)C4)C3)n2)c(C)c1` (stereo not drawn) [G_CC-028, N-[2-[[4-(3-benzyl-3,7-diazaspiro[4.4]nonan-7-yl)-2-pyrimidinyl]oxy]ethyl]-4-methoxy-N,2,6-trimethylbenzenesulfonamide], the inhibition at 10 µM stood at 104%.

As for `COc1cc(C)c(S(=O)(=O)N2c3ccccc3C[C@H]2COc2ccnc(N(C)CCN3CCC(c4ccccc4)(N4CCCC4)CC3)n2)c(C)c1` [H_CC-072, [4-[[(2S)-1-[(4-methoxy-2,6-dimethyl-phenyl)sulfonyl]-2,3-dihydro-1H-indol-2-yl]-methoxy]-pyrimidin-2-yl]-methyl-[2-(4-phenyl-4-pyrrolidin-1-yl-piperidin-1-yl)-ethyl]-amine], the inhibition at 10 µM came to 83%. With `COc1cc(C)c(S(=O)(=O)N(C)C(COc2nccc(N3CCC(Oc4ccccn4)CC3)n2)c2ccccc2)c(C)c1` (stereo not drawn) [G_CC-136, 4-methoxy-N,2,6-trimethyl-N-[1-phenyl-2-[4-(4-pyridin-2-yloxy-piperidin-1-yl)-pyrimidin-2-yl]oxy-ethyl]benzenesulfonic acid amide], the inhibition at 10 µM was found to be 81%. For the compound `COc1cc(C)c(S(=O)(=O)N(C)CCOc2nccc(N3CCC(N4CCN(C)CC4)CC3)n2)c(C)c1` [G_CC-006, 4-methoxy-N,2,6-trimethyl-N-[2-[[4-[4-(4-methyl-1-piperazinyl)-1-piperidinyl]-2-pyrimidinyl]oxy]ethyl]benzenesulfonamide], the inhibition at 10 µM was 97%. As for `COc1cc(C)c(S(=O)(=O)N(C)CCOc2nccc(N(C)CCN3CCC(c4ccccc4)(N(C)C)CC3)n2)c(C)c1` [G_CC-098, N-[2-[4-[2-(4-dimethylamino-4-phenyl-piperidin-1-yl)-ethyl-methyl-amino]-pyrimidin-2-yl]oxy-ethyl]-4-methoxy-N,2,6-trimethyl-benzenesulfonic acid amide], the “% inh. (rat B1R) 10 μM” value (10 µM) worked out at 79%. For `COc1cc(C)c(S(=O)(=O)N2CCCCC2COc2ccnc(N3CCC4(CCN(Cc5ccccc5)C4)C3)n2)c(C)c1` (stereo not drawn) [H_CC-021, 3-benzyl-7-[4-[[1-(4-methoxy-2,6-dimethylphenyl)sulfonyl-2-piperidinyl]methoxy]-2-pyrimidinyl]-3,7-diazaspiro[4.4]nonane], the inhibition at 10 µM came to 62%. Take `COc1cc(C)c(S(=O)(=O)N2CCC[C@H]2COc2ccnc(N3CCN(C4CCN(C)CC4)CC3)n2)c(C)c1` [H_CC-025, 4-[[(2S)-1-(4-methoxy-2,6-dimethylphenyl)sulfonyl-2-pyrrlidinyl]methoxy]-2-[4-(1-methyl-4-piperidinyl)-1-piperazinyl]pyrimidine]: the “% inh. (rat B1R) 10 μM” value is reported as 65%. For the compound `COc1cc(C)c(S(=O)(=O)N(C)CCOc2nccc(N3CCC4(CC3)CCN(c3ccc(F)cc3)C4=O)n2)c(C)c1` [G_CC-042, N-[2-[[4-[3-(4-fluorophenyl)-4-oxo-3,8-diazaspiro[4.5]decan-8-yl]-2-pyrimidinyl]oxy]ethyl]-4-methoxy-N,2,6-trimethylbenzenesulfonamide], the inhibition at 10 µM was found to be 87%. For `COc1cc(C)c(S(=O)(=O)N2c3ccccc3C[C@H]2COc2ccnc(N3CCN(C4CCN(C)CC4)CC3)n2)c(C)c1` [H_CC-027, (2S)-1-(4-methoxy-2,6-dimethylphenyl)sulfonyl-2-[[2-[4-(1-methyl-4-piperidinyl)-1-piperazinyl]-4-pyrimidinyl]oxymethyl]indoline], the inhibition at 10 µM came to 91%. The same measure, in the same setting: to `COc1cc(C)c(S(=O)(=O)N2CCC[C@H]2COc2nccc(N3CCn4cc(CN5CCCCC5)nc4C3)n2)c(C)c1` [G_CC-109, 7-[2-[[(2S)-1-[(4-methoxy-2,6-dimethyl-phenyl)sulfonyl]-pyrrolidin-2-yl]-methoxy]-pyrimidin-4-yl]-2-(piperidin-1-yl-methyl)-5,6,7,8-tetrahydro-imidazo[1,2-a]pyrazine] belongs 98%; to `COc1cc(C)c(S(=O)(=O)N2CC(Oc3nccc(N4CCN(CCCN(C)C)CC4)n3)C2)c(C)c1` [G_CC-127, 3-[4-[2-[1-[(4-methoxy-2,6-dimethyl-phenyl)sulfonyl]-azetidin-3-yl]oxy-pyrimidin-4-yl]-piperazin-1-yl]-propyl-dimethyl-amine], 54%. For `O=S(=O)(c1cccc(C(F)(F)F)c1)N(CCCc1ccnc(N2CCC3(CCN(c4ccncc4)CC3)CC2)n1)C1CC1` [Example I-008, N-cyclopropyl-N-[3-[2-(9-pyridin-4-yl-3,9-diazaspiro[5.5]undecan-3-yl)-pyrimidin-4-yl]-propyl]-3-(trifluoromethyl)-benzenesulfonic acid amide], the inhibition at 10 µM came to 94%. In the case of `COc1cc(C)c(S(=O)(=O)N(C)CCOc2ccnc(N3CCC(OCCN4CCCC4)(c4cccnc4)CC3)n2)c(C)c1` [H_CC-033, 4-methoxy-N,2,6-trimethyl-N-[2-[[2-[4-(3-pyridyl)-4-(2-1-pyrrolidinylethoxy)-1-piperidinyl]-4-pyrimidinyl]oxy]ethyl]benzenesulfonamide], the inhibition at 10 µM worked out at 82%.
